The results in this text go back to ChEMBL document CHEMBL1158345, “Fragment and knowledge-based design of selective GSK-3beta inhibitors using virtual screening models” (Eur J Med Chem, 2009).

The Ki is a measure of affinity in units of concentration, obtained from inhibition or displacement. Read a low Ki as a stronger hold on the target. By IC50 is commonly meant the concentration that gives 50% inhibition. The low end stands for inhibition by little substance, the high end for a need for much substance.

Chain of Glycogen synthase kinase-3 beta (P49841 whole entry): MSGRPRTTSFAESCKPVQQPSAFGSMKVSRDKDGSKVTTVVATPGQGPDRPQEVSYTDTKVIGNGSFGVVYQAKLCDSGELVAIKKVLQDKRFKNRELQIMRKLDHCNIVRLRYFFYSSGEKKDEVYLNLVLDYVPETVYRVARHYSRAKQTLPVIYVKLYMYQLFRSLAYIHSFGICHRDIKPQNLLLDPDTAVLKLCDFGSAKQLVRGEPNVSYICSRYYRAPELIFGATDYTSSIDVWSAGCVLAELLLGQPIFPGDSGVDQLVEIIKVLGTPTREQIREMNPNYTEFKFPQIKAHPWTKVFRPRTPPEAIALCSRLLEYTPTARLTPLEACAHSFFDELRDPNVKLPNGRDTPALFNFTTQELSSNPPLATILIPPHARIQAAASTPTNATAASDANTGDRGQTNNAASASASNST

This test has as its target Glycogen synthase kinase-3 beta (Homo sapiens, UniProt P49841).
Description: Inhibition of human GSK3-beta
As for `O=[N+]([O-])c1ccc(NCCNc2ncc(-c3ncc[nH]3)c(-c3ccc(Cl)cc3Cl)n2)nc1`, the affinity corresponds to a Ki of 0.09 nM. `Nc1nc(Nc2ccccc2)sc1C(=O)C1CC1` showed a half-maximal inhibitory concentration (IC50) of 2400 nM. Take `Cn1cc(-c2cc(-c3nc4ccccc4[nH]3)c(=O)[nH]n2)ccc1=O`: half-maximal inhibition (IC50) was put at 160 nM. `Cn1cc(C2=C(c3cc(Cl)ccc3Cl)C(=O)NC2=O)c2ccccc21`: it took 7 nM to reach half-maximal inhibition (IC50). For the compound `COc1cc(C2=C(c3cn(CCN4CCN(C)CC4)c4ccccc34)C(=O)NC2=O)c2occc2c1`, inhibition was half-maximal at 0.14 nM (IC50). `Cn1cc(C2=C(c3cn(CCCSC(=N)N)c4ccccc34)C(=O)NC2=O)c2ccccc21` [BISINDOLYLMALEIMIDE IX] returned a concentration for half-maximal inhibition (IC50) of 2.8 nM.
